≈ marks a conversion by molar mass, not a printed value. Read-outs that look alike come from different tables or passages of the source.
Columns and labels:
[1] = tested on: S. aureus IID 670 (Terajima); experiment: In vitro antibacterial activity, MIC (standard strain); assay type: cell-based, Staphylococcus aureus; settings: S. aureus IID 670 (Terajima); 10^6 cells/ml; standard strain; listed as Exp.4
[2] = tested on: B. fragilis 0558; experiment: as above; assay type: cell-based, Bacteroides fragilis; settings: B. fragilis 0558; 10^6 cells/ml; standard strain; listed as Exp.4
[3] = tested on: Serratia marcescens IID 618; experiment: as above; assay type: cell-based; settings: Serratia marcescens IID 618; 10^6 cells/ml; standard strain; listed as Exp.4
[4] = tested on: B. fragilis 25285; experiment: as above; assay type: cell-based, Bacteroides fragilis; settings: B. fragilis 25285; 10^6 cells/ml; standard strain; listed as Exp.4
[5] = tested on: Acinetobacter anitratus IID 876; experiment: as above; assay type: cell-based; settings: Acinetobacter anitratus IID 876; 10^6 cells/ml; standard strain; listed as Exp.4
[6] = tested on: M. pneumoniae Mac.; experiment: In vitro antibacterial activity against Mycoplasma, MIC; assay type: cell-based; settings: Mycoplasmoides pneumoniae, 120 h; M. pneumoniae Mac.; no visible growth after incubation for 5 days; read-out: MIC
From the text: Experiment-3 In vitro antibacterial activity against Mycoplasma

[7] = tested on: P. aeruginosa IFO 12689; experiment: In vitro antibacterial activity, MIC (standard strain); assay type: cell-based, Pseudomonas aeruginosa; settings: P. aeruginosa IFO 12689; 10^6 cells/ml; standard strain
[8] = tested on: E. coli ML4707; experiment: In vivo antibacterial activity against systemic infection in mice; set-up: species or system mice (ICR-S); settings: Escherichia coli, ML4707; mice (ICR-S); oral, an hour after intraperitoneal infection; challenge dose 2.7 x 10^6 ~ 8.8 x 10^6 cfu/mouse; read-out: ED50 E. coli ML4707
Description: (§1) Experiment-2 In vivo antibacterial activity against systemic infection in mice (ICR-S)
(§2) The infections were produced by intraperitoneal injection of a suspension of the bacterial culture corresponding to the germ studied. The products were administered orally at an hour after the infection.

[9] = tested on: S. aureus Smith; experiment: as above; set-up: species or system mice (ICR-S); settings: Staphylococcus aureus, po, mice (ICR-S), an hour after intraperitoneal infection
Description: as §1, §2

[10] = tested on: S. pneumoniae S-4288; experiment: as above; set-up: species or system mice (ICR-S); settings: Streptococcus pneumoniae, S4288; mice (ICR-S); oral, an hour after intraperitoneal infection; challenge dose 7.5 x 10^4 ~ 4.8 x 10^6 cfu/mouse; read-out: ED50 S. pneumoniae S-4288
Description: as §1, §2

[11] = tested on: Escherichia coli NIHJ JC-2; experiment: In vitro antibacterial activity, MIC (standard strain); assay type: cell-based; settings: Escherichia coli NIHJ JC-2; 10^6 cells/ml; standard strain; listed as Exp.4
[12] = tested on: Alcaligenes faecalis 0104002; experiment: as above; assay type: cell-based; settings: Alcaligenes faecalis 0104002; 10^6 cells/ml; standard strain; listed as Exp.4
[13] = tested on: Fusobacterium varium KYA 8501; experiment: as above; assay type: cell-based; settings: Fusobacterium varium KYA 8501; 10^6 cells/ml; standard strain; listed as Exp.4
[14] = tested on: S. epidermidis IID 866; experiment: as above; assay type: cell-based; settings: S. epidermidis IID 866; 10^6 cells/ml; standard strain; listed as Exp.4
[15] = tested on: Enterobacter cloacae IID 977; experiment: as above; assay type: cell-based; settings: Enterobacter cloacae IID 977; 10^6 cells/ml; standard strain; listed as Exp.4

## NCC1CCN(c2c(F)cc3c(=O)c(C(=O)O)cn(C4CC4)c3c2F)C1 (stereo not shown) [Example 4, 7-(3-Aminomethyl-1-pyrrolidinyl)-1-cyclopropyl-6,8-difluoro-1,4-dihydro-4-oxo-3-quinolinecarboxylic acid]
[1]
  MIC: 0.025 mg/L (≈ 0.0688 µM)
[2]
  MIC: 0.78 mg/L (≈ 2.15 µM)
[3]
  MIC: 0.10 mg/L (≈ 0.275 µM)
[4]
  MIC: 0.78 mg/L (≈ 2.15 µM)
[5]
  MIC: 0.05 mg/L (≈ 0.138 µM)
[6]
  MIC: 0.025 mg/L (≈ 0.0688 µM)
[7]
  MIC: 0.39 mg/L (≈ 1.07 µM)
[8]
  ED50: 3 mg/kg
[9]; challenge dose 5.5 x 10^5 cfu/mouse, n=5, read-out: ED50 against S. aureus Smith
  ED50: 1.57 mg/kg
[9]; challenge dose 6.0 x 10^5 cfu/mouse, read-out: ED50 S. aureus Smith
  ED50: 1.8 mg/kg
[10]
  ED50: 13.8 mg/kg
[11]
  MIC: 0.0125 mg/L (≈ 0.0344 µM)
[12]
  MIC: 0.78 mg/L (≈ 2.15 µM)
[13]
  MIC: 1.56 mg/L (≈ 4.29 µM)
[14]
  MIC: 0.025 mg/L (≈ 0.0688 µM)
[15]
  MIC: 0.05 mg/L (≈ 0.138 µM)
